Experimental data taken from patent US9226928B2, “Spirocyclic isoxazoline parasiticidal combinations” (Zoetis Services LLC, priority 2012, dated 2016).
Read-outs that look alike come from different tables or passages of the source.

Assays:
[1] = test system: tick (O. turicata, Zoetis strain); assay: In-vitro tick feeding assay; format: cell-based, Ornithodoros turicata; details: for MED (lowest dose to cause paralysis ≧50%): at 24, 28, and 72 hours post feeding
[2] = test system: D. immitis (L3 inoculation, adult worm recovery); assay: Prevention of heartworm disease in dogs; details: in vivo, po
[3] = Combination pharmacokinetics in fed dogs; details: dog, in vivo, sampling to 28 days
flea (C. felis) = assay: In-vitro flea feeding assay; format: cell-based, Ctenocephalides felis; details: for lowest MED alone (lowest dose to cause mortality ≧50%) / control MED dose levels alone (triple combination assay): compound alone; for lowest MED alone (lowest dose to cause mortality ≧50%): 24 hours blood feeding; for control MED dose levels alone (triple combination assay): controls of the triple combination assay
C. felis fleas = assay: Efficacy against fleas in dogs; details: all time points (Days 1-35); same groups
Protocol: Each dog was infested with approximately 100 unfed viable adult C. felis fleas on Days −1, 6, 13, 20, 27, and 34. Efficacy was assessed by comb counts of live fleas on Days 1, 7, 14, 21, 28, and 35. Efficacy was determined as the % reduction in geometric mean live flea counts versus placebo.

[4] = test system: Dirofilaria immitis microfilariae (MF), Michigan strain; assay: In vitro motility assay, D. immitis microfilariae
Protocol: Antiparasitic compounds were dissolved in DMSO and were spotted into the well of a 384 well microtiter plate. Nematodes in a buffered solution were added to the plates and motility measured at 96 hours for the H. contortus strains and 72 hours for D. immitis. […] MED was subjective based on visual assessment using light microscopy and was the lowest dose to cause a significant decrease in motility. Concentrations at ½ log below the MED were used alone and in combination and were read on the LemnaTec Scanalyzer to provide a quantitative percent motility compared to the negative control.
Material and method for the Dirofilaria immitis in vitro assay: Dirofilaria immitis MF were purified from microfilaremic canine blood by erythrocyte lysis and filtration and maintained in a cell culture media fortified with fetal bovine serum and antibiotics. […] The motility assessment was performed after 72 hours of incubation at 37° C. and 5% CO2 on a LemnaTec Scanalyzer which determined motility of the MF by image analysis.

[5] = test system: Haemonchus contortus L3 susceptible strain; assay: In vitro motility assay, H. contortus L3 susceptible strain; format: cell-based
[6] = minimum efficacious dose, visual motility assessment, 72 hours
[7] = vs untreated control, 72 hours, LemnaTec, moxidectin 3.3 μM, pyrantel 33 μM, Compound A 10 μM, alone or combined (triple row prints 100 μM Compound A)
[8] = minimum efficacious dose, visual motility assessment, 96 hours
[9] = vs untreated control, 96 hours, LemnaTec, moxidectin 0.1 μM, pyrantel 10 μM, Compound A 100 μM, alone or combined

Structure (SMILES)	MED (lowest dose to cause paralysis ≧50%) [1] [µg/mL]	geometric mean adult D. immitis worm count [2]	AUC ([3]; dosed alone: Compound A 2 mg/kg, moxidectin 0.25 μg/kg, pyrantel pamoate 5 mg/kg) [µg·h/mL]	AUC ([3]; the three compounds dosed simultaneously) [µg·h/mL]	lowest MED alone (lowest dose to cause mortality ≧50%) (flea (C. felis)) [mM]	control MED dose levels alone (triple combination assay) (flea (C. felis)) [mM]	Percentage reductions in geometric and arithmetic mean live flea counts compared with placebo (C. felis fleas) [%]	% Motility [4] [%]	D. immitis MED [4] [µM]	% Motility [5] [%]	H. contortus L3 susceptible MED [5] [µM]	D. immitis MED [4, 6] [µM]	% Motility [4, 7] [%]	H. contortus L3 susceptible MED [5, 8] [µM]	% Motility [5, 9] [%]	effect on ticks ([1]; at a rate of 3 or 30 ug/mL)	effect on fleas (flea (C. felis); highest dose tested (300 mM))
CS(=O)(=O)CC(=O)N1CC2(C1)OCc1cc(C3=NO[C@@](c4cc(Cl)c(F)c(Cl)c4)(C(F)(F)F)C3)ccc12 [Compound A, (S)-1-(5′-(5-(3,5-dichloro-4-fluorophenyl)-5-(trifluoromethyl)-4,5-dihydroisoxazol-3-yl)-3′H-spiro[azetidine-3,1′-isobenzofuran]-1-yl)-2-(methylsulfonyl)ethanone]	0.01	30.3 worms recovered from each dog	202	206	0.0001	0.3	100	50.9	33	76.0	>100	–	–	–	–	–	–
CO/N=C1\C[C@]2(C[C@@H]3C[C@@H](C/C=C(\C)C[C@@H](C)/C=C/C=C4\CO[C@@H]5[C@H](O)C(C)=C[C@@H](C(=O)O3)[C@]45O)O2)O[C@H](/C(C)=C/C(C)C)[C@H]1C [Moxidectin, moxidectin]	0.03	–	–	–	0.01	10	–	–	–	–	–	10	62.0	0.3	95.0	–	–
CN1CCCN=C1/C=C/c1cccs1 [Pyrantel, pyrantel pamoate]	–	–	–	–	–	> 300	–	–	–	–	–	100	77.8	33	95.6	no effect	no effect
